# Patent US20100298141A1, “SUBSTITUTED PYRIDINE N-OXIDE HERBICIDES” (E. I. DU PONT DE NEMOURS AND COMPANY, priority 2007, published 2010)
# Tests used:
# barnyardgrass = experiment: Test A pre-/postemergence greenhouse test; assay type: in vivo, Echinochloa crus-galli; details: for Barnyardgrass plant response rating: 0 to 100 scale
# In short: (§1)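 Herbicidal effect is a visual injury score given about ten days post-treatment by comparison with untreated controls. Preemergence plots received a directed spray onto sown loam–sand soil; postemergence plants, at the one- to two-leaf stage and 2–10 cm tall, were sprayed at the same time.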
# redroot pigweed = experiment: Test A pre-/postemergence greenhouse test; assay type: in vivo, Amaranthus retroflexus; details: for Pigweed plant response rating: 0 to 100 scale
# In short: as §1
# velvetleaf [1] = experiment: Test A pre-/postemergence greenhouse test; assay type: in vivo, Abutilon theophrasti; details: for Velvetleaf plant response rating: 0 to 100 scale
# In short: as §1
# downy brome = experiment: Test C pre-/postemergence test; assay type: in vivo, Bromus tectorum
# In short: (§2)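 Test chemicals were formulated with surfactant in a non-phytotoxic solvent and sprayed both on freshly planted seeds (preemergence) and on 1- to 4-leaf plants of 2–18 cm (postemergence). Flooded-paddy pots received compound directly into 3 cm of standing water, maintained for the test.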
# green foxtail = experiment: Test C pre-/postemergence test; assay type: in vivo, Setaria viridis; details: Preemergence
# In short: as §2
# wild oat = experiment: Test C pre-/postemergence test; assay type: in vivo, Avena fatua; details: Preemergence
# In short: as §2
# Surinam grass = experiment: Test C pre-/postemergence test; assay type: in vivo, Brachiaria decumbens; details: Preemergence
# In short: as §2
# cocklebur = experiment: Test C pre-/postemergence test; assay type: in vivo, Xanthium strumarium
# In short: as §2
# crabgrass = experiment: Test C pre-/postemergence test; assay type: in vivo, Digitaria sanguinalis; details: Preemergence
# In short: as §2
# giant foxtail = experiment: Test C pre-/postemergence test; assay type: in vivo, Setaria faberii; details: Preemergence
# In short: as §2
# johnsongrass = experiment: Test C pre-/postemergence test; assay type: in vivo, Sorghum halepense; details: Preemergence
# In short: as §2
# kochia = experiment: Test C pre-/postemergence test; assay type: in vivo, Kochia scoparia; details: Preemergence
# In short: as §2
# lambsquarters = experiment: Test C pre-/postemergence test; assay type: in vivo, Chenopodium album; details: Preemergence
# In short: as §2
# eastern black nightshade = experiment: Test C pre-/postemergence test; assay type: in vivo, Solanum ptycanthum; details: Preemergence
# In short: as §2
# common ragweed = experiment: Test C pre-/postemergence test; assay type: in vivo, Ambrosia elation; details: Preemergence
# In short: as §2
# velvetleaf [2] = experiment: Test C pre-/postemergence test; assay type: in vivo, Abutilon theophrasti; details: Preemergence
# In short: as §2
# rice = experiment: Test C flooded paddy test; assay type: in vivo, Oryza sativa; details: Flood
# In short: (§3)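 Compound was added to standing water 3 cm above soil, flood maintained, and plants held in a greenhouse before visual scoring against controls at 13 to 15 days.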
# duck salad = experiment: Test C flooded paddy test; assay type: in vivo, Heteranthera limosa; details: Flood
# In short: as §3
# [3] = Postemergence, 125 g ai/ha, 0 is no effect, 100 is complete control
# [4] = Postemergence, 500 g ai/ha, 0 is no effect, 100 is complete control
# [5] = Preemergence, 125 g ai/ha, 0 no effect, 100 complete control
# [6] = Preemergence, 500 g ai/ha, 0 to 100 scale where 0 is no effect and 100 is complete control
# [7] = 62 g ai/ha, Preemergence, scale 0 to 100
# [8] = Preemergence, 31 g ai/ha, scale 0 to 100 (0 no effect, 100 complete control)
# [9] = preemergence, 125 g ai/ha, scale 0 (no effect) to 100 (complete control)
# [10] = 31 g ai/ha, scale 0 to 100 (0 no effect, 100 complete control)
# [11] = 62 g ai/ha, scale 0 to 100, 0 no effect, 100 complete control, 13 to 15 days
# [12] = 125 g ai/ha, scale 0 to 100, 0 no effect, 100 complete control, 13 to 15 days
# [13] = 250 g ai/ha, scale 0 to 100 (0 no effect, 100 complete control)
smiles,measurement,setting,value
Cn1nc(C(F)(F)F)c(C[S+]([O-])c2cccc[n+]2[O-])c1OCC(F)(F)F (racemic) [Compound 28],Barnyardgrass plant response rating,barnyardgrass; [3],80
same,Barnyardgrass plant response rating,barnyardgrass; [4],90
same,Barnyardgrass plant response rating,barnyardgrass; [5],90
same,"Plant response rating, Barnyardgrass",barnyardgrass; [6],100
same,Pigweed plant response rating,redroot pigweed; [3],70
same,Pigweed plant response rating,redroot pigweed; [4],90
same,Pigweed plant response rating,redroot pigweed; [5],100
same,"Plant response rating, Pigweed",redroot pigweed; [6],100
same,Velvetleaf plant response rating,velvetleaf [1]; [3],70
same,Velvetleaf plant response rating,velvetleaf [1]; [4],80
same,Velvetleaf plant response rating,velvetleaf [1]; [5],80
same,"Plant response rating, Velvetleaf",velvetleaf [1]; [6],100
same,"Bromegrass, Downy plant response rating",downy brome; [7],40
same,"Plant response rating, Bromegrass, Downy",downy brome; [8],0
same,"Plant response rating (0 to 100), Bromegrass, Downy","downy brome; Preemergence, 250 g ai/ha",100
same,"Bromegrass, Downy plant response rating",downy brome; [9],50
same,"Foxtail, Green plant response rating","green foxtail; 62 g ai/ha, scale 0 to 100",100
same,"Plant response rating, Foxtail, Green",green foxtail; [10],100
same,"Plant response rating (0 to 100), Foxtail, Green",green foxtail; 250 g ai/ha,100
same,"Oat, Wild plant response rating","wild oat; 62 g ai/ha, scale 0 to 100",75
same,"Plant response rating, Oat, Wild",wild oat; [10],70
same,Surinam Grass plant response rating,"Surinam grass; 62 g ai/ha, scale 0 to 100",100
same,"Plant response rating, Surinam Grass",Surinam grass; [10],85
same,Cocklebur plant response rating,cocklebur; [7],10
same,"Plant response rating, Cocklebur",cocklebur; [8],0
same,"Plant response rating (0 to 100), Cocklebur","cocklebur; Preemergence, 250 g ai/ha",65
same,Cocklebur plant response rating,cocklebur; [9],50
same,"Crabgrass, Large plant response rating","crabgrass; 62 g ai/ha, scale 0 to 100",100
same,"Plant response rating, Crabgrass, Large",crabgrass; [10],100
same,"Plant response rating (0 to 100), Crabgrass, Large",crabgrass; 250 g ai/ha,100
same,"Foxtail, Giant plant response rating","giant foxtail; 62 g ai/ha, scale 0 to 100",100
same,"Plant response rating, Foxtail, Giant",giant foxtail; [10],95
same,"Plant response rating (0 to 100), Foxtail, Giant",giant foxtail; 250 g ai/ha,100
same,Johnsongrass plant response rating,"johnsongrass; 62 g ai/ha, scale 0 to 100",100
same,"Plant response rating, Johnsongrass",johnsongrass; [10],85
same,"Plant response rating (0 to 100), Johnsongrass",johnsongrass; 250 g ai/ha,100
same,Kochia plant response rating,"kochia; 62 g ai/ha, scale 0 to 100",100
same,"Plant response rating, Kochia",kochia; [10],100
same,Lambsquarters plant response rating,"lambsquarters; 62 g ai/ha, scale 0 to 100",100
same,"Plant response rating, Lambsquarters",lambsquarters; [10],100
same,Nightshade plant response rating,"eastern black nightshade; 62 g ai/ha, scale 0 to 100",100
same,"Plant response rating, Nightshade",eastern black nightshade; [10],90
same,Ragweed plant response rating,"common ragweed; 62 g ai/ha, scale 0 to 100",85
same,"Plant response rating, Ragweed",common ragweed; [10],65
same,Velvetleaf plant response rating,"velvetleaf [2]; 62 g ai/ha, scale 0 to 100",100
same,"Plant response rating, Velvetleaf",velvetleaf [2]; [10],80
same,"Plant response rating, Rice",rice; [10],0
same,"Plant response rating, Rice",rice; [11],25
same,"Plant response rating, Rice",rice; [12],65
same,"Plant response rating, Rice",rice; [13],80
same,"Plant response rating, Ducksalad",duck salad; [10],65
same,"Plant response rating, Ducksalad",duck salad; [11],80
same,"Plant response rating, Ducksalad",duck salad; [12],95
same,"Plant response rating, Ducksalad",duck salad; [13],95
